Measured values published in patent US8247431B2, “Heterocyclic hydrazide compound and pesticidal use of the same” (Sumitomo Chemical Company, Limited, priority 2007, dated 2012).

What was measured:
Assay type in all cases: in vivo
[1] = tested on: diamondback moths (Plutella xylostella); test: Test Example 1: spray on cabbage, third-instar larvae of diamondback moths; conditions: 20 ml/cup spray on cabbage, 10 third-instar larvae, counted after 5 days; for pest or weed control at 500 ppm: Plutella xylostella, 120 h, 500 ppm active ingredient, read-out: controlling value
Experimental: Then, it will be shown by Test Examples that the present compound is effective in controlling harmful arthropods. In the Test Example, controlling values were calculated by the following equation: Controlling value(%)={1−(Cb×Tai)/(Cai×Tb)}×100 wherein Cb: the number of worms in a non-treated section before treatment Cai: the number of worms in a non-treated section on observation Tb: the number of worms in a treated-section before treatment Tai: the number of worms in a treated-section on observation. Preparations of the test compounds obtained in Formulation Example 5 were diluted with water so that the active ingredient concentration became 500 ppm, to prepare test spray solutions. At the same time, cabbage was planted in a polyethylene cup, and grown until the third true leaf or the fourth true leaf was developed. The test spray solution as described above was sprayed in an amount of 20 ml/cup on the cabbage. After the spray solution on the cabbage was dried, 10 third-instar larvae of diamondback moths (Plutella xylostella) were put on the cabbage. After 5 days, the number of diamondback moths was counted, and the controlling value was calculated by the above equation. Furthermore, preparations of the test compound (7) and a comparative compound of the formula [drawing 523] obtained in a formulation according to Formulation Example 5 were diluted with water so that the active ingredient concentration became 0.2 ppm, to prepare test spray solution. At the same time, cabbage was planted in a polyethylene cup, and grown until the third true leaf or the fourth true leaf was developed. The test spray solution as described above was sprayed in an amount of 20 ml/cup on the cabbage. After the spray solution on the cabbage was dried, 10 third-instar larvae of diamondback moths (Plutella xylostella) were put on the cabbage. After 5 days, the number of diamondback moths was counted, and the controlling value was calculated by the above equation.

[2] = tested on: Spodoptera litura; test: Test Example 3: spray on cabbage, fourth-instar larvae of Spodoptera litura; conditions: 120 h, 500 ppm active ingredient, 20 ml/cup spray on cabbage, 10 fourth-instar larvae, counted after 5 days, read-out: controlling value
Experimental: Then, it will be shown by Test Examples that the present compound is effective in controlling harmful arthropods. In the Test Example, controlling values were calculated by the following equation: Controlling value(%)={1−(Cb×Tai)/(Cai×Tb)}×100 wherein Cb: the number of worms in a non-treated section before treatment Cai: the number of worms in a non-treated section on observation Tb: the number of worms in a treated-section before treatment Tai: the number of worms in a treated-section on observation. Preparations of the test compounds obtained in Formulation Example 5 were diluted with water so that the active ingredient concentration became 500 ppm to prepare test spray solutions. At the same time, cabbage was planted in a polyethylene cup, and grown until the third true leaf or the fourth true leaf was developed. The test spray solution as described above was sprayed in an amount of 20 ml/cup on the cabbage. After the spray solution sprayed on the cabbage was dried, 10 fourth-instar larvae of Spodoptera litura were put on the cabbage. After 5 days, the number of Spodoptera litura surviving on the cabbage leaves was counted, and a controlling value was calculated by the above equation.

[3] = tested on: cotton aphids (Aphis gossypii); test: Test Example 2: spray on cucumber infested with cotton aphids; conditions: topical, 144 h, 500 ppm active ingredient, 20 ml/cup spray on cucumber, about 30 aphids, counted six days after spraying, read-out: controlling value
Experimental: Then, it will be shown by Test Examples that the present compound is effective in controlling harmful arthropods. In the Test Example, controlling values were calculated by the following equation: Controlling value(%)={1−(Cb×Tai)/(Cai×Tb)}×100 wherein Cb: the number of worms in a non-treated section before treatment Cai: the number of worms in a non-treated section on observation Tb: the number of worms in a treated-section before treatment Tai: the number of worms in a treated-section on observation. Preparations of the test compounds obtained in Formulation Example 5 were diluted with water so that the active ingredient concentration became 500 ppm to prepare test spray solutions. At the same time, cucumber was planted in a polyethylene cup, and was grown until the first true leaf was developed. About 30 cotton aphids were put on the cucumber. One day after, the test spray solution as described above was sprayed in an amount of 20 ml/cup on the cucumber. Six days after spraying, the number of cotton aphids (Aphis gossypii) was counted, and a controlling value was calculated by the above equation.

[4] = tested on: Adoxophyes orana fasciata; test: Test Example 4: spray on apple seedling, first-instar larvae of Adoxophyes orana fasciata; conditions: 168 h, 500 ppm active ingredient, 20 ml spray on apple seedling, about 30 first-instar larvae, counted seven days after spraying, read-out: controlling value
Experimental: Then, it will be shown by Test Examples that the present compound is effective in controlling harmful arthropods. In the Test Example, controlling values were calculated by the following equation: Controlling value(%)={1−(Cb×Tai)/(Cai×Tb)}×100 wherein Cb: the number of worms in a non-treated section before treatment Cai: the number of worms in a non-treated section on observation Tb: the number of worms in a treated-section before treatment Tai: the number of worms in a treated-section on observation. Preparations of the test compounds obtained in Formulation Example 5 were diluted with water so that the active ingredient concentration became 500 ppm to prepare test spray solutions. At the same time, 20 ml of the test spray solution as described above was sprayed to an apple seedling (28 day-old seeding, tree height: about 15 cm) planted in a plastic cup. The apple seedling was air-dried to such an extent that the spray solution sprayed on the apple seedling was dried. About 30 first-instar larvae of Adoxophyes orana fasciata were released. Seven days after spraying, the number of worms surviving on the apple seedling was counted, and a controlling value was calculated by the above equation.

SMILES	pest or weed control at 500 ppm [1] [%]	pest or weed control at 500 ppm [2] [%]	pest or weed control at 500 ppm [3] [%]	pest or weed control at 500 ppm [4] [%]	control value ([1]; 0.2 ppm active ingredient)
COC(=O)N(C)NC(=O)c1nc(Cl)cc(C)c1NC(=O)c1cc(Br)nn1-c1ncccc1Cl [Compound 8, N′-(3-{[5-bromo-2-(3-chloro-pyridin-2-yl)-2H-pyrazole-3-carbonyl]-amino}-6-chloro-4-methyl-pyridine-2-carbonyl)-N-methyl-hydrazinecarboxylic acid methyl ester]	≥ 90	≥ 80	≥ 90	≥ 90	
COC(=O)NNC(=O)c1nc(Cl)cc(C)c1NC(=O)c1cc(Br)nn1-c1ncccc1Cl [Compound 7, N′-(3-{[5-bromo-2-(3-chloro-pyridin-2-yl)-2H-pyrazole-3-carbonyl]-amino}-6-chloro-4-methyl-pyridine-2-carbonyl)-hydrazinecarboxylic acid methyl ester]	≥ 90	≥ 80	≥ 90	≥ 90	more than 80%
